Laboratory results reported in patent publication US9975881B2, “Compound” (ASTRAZENECA AB, priority 2011, dated 2018).

Biological target: T1, human CXCR2 (Homo sapiens, UniProt P25025)
T1 construct: expressed in transfected cells
T1 sequence (P25025 1-360): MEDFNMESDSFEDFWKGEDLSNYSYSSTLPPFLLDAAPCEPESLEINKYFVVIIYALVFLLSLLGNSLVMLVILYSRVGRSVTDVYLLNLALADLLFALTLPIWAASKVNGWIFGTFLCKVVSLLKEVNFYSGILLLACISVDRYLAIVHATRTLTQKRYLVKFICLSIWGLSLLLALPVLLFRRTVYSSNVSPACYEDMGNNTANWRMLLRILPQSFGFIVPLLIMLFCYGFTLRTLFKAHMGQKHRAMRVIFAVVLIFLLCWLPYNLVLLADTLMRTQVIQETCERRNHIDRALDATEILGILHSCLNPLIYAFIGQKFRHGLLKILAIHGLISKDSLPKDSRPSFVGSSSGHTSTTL
Test: Potency (pIC50) - ligand binding assay, Alexa647 IL-8 displacement from CXCR2 membranes
Conditions: 50% reduction in specific Alexa647 IL-8 (1 nM) binding to HEK293 human CXCR2 membranes
Description: Potency (pIC50)—Ligand Binding Assay
Human Embryonic Kidney 293 cells (HEK293 cells) from the American Type Culture Collection were transfected with human CXCR2 cDNA (RefSeqNM_001557), previously cloned into the eukaryotic expression vector pIRES-Neo2, (Clontech). Populations of Geneticin (Invitrogen)-resistant cells were selected for stable expression of CXCR2 and clones were generated by dilution cloning (0.3 cells/well) in 96-well tissue culture plates.
Cells of the highest expressing clone (Clone 6, identified by FACS analysis) were harvested, following 24 hour pre-treatment with 5 mM sodium butyrate, in 10 ml of ice-cold hypotonic buffer (20 mM HEPES, 1 mM EDTA, 0.1 mM DTT, 0.1 mM Phenyl Methyl Sulphonyl Fluoride and 0.1 mg/L Bacitracin, pH7.4) and left to swell for 10 min. Following centrifugation (200 g, 5 min, 4° C.), cells were resuspended in hypotonic buffer and membranes were prepared using a polytron tissue homogenizer (3×10 second treatments). […]
All assays were performed in black, 384-well plates (Greiner). […] Total binding of Alexa^647 IL-8 was determined in the absence of competing compound and non-specific binding of Alexa^647 IL-8 was determined in the presence of 0.3 μM 1-(4-chloro-2-hydroxy-3-sulfamoyl-phenyl)-3-(2,3-dichlorophenyl)urea. […]

CC1CN(S(=O)(=O)Nc2cc(O[C@H](C)[C@@H](O)CO)nc(SCc3ccc(F)cc3)n2)C1 [Example 1, N-(6-((2R,3S)-3,4-Dihydroxybutan-2-yloxy)-2-(4-fluorobenzylthio)pyrimidin-4-yl)-3-methylazetidine-1-sulfonamide]
IC50: 3.98 nM
